From ChEMBL document CHEMBL1201862, “PubChem BioAssay data set” (2004)
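Where inhibition never reached the appropriate level, the endpoint shown equals the highest concentration tested. Otherwise, values were interpolated linearly from a five-concentration, 48-hour dose response in 96-well plates. GI50 marks 50% less growth.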 Calls of active or inactive are those of the source. Cut-off read from the data, not from the text of the source: active = GI50 up to about 1.1 µM and inactive = higher.

Tests used:
Assay in all cases: growth of human tumour cells (NCI), 48 h
SF-295 = tested on: SF-295
U-251 = tested on: U-251
IGROV-1 = tested on: IGROV-1
HOP-62 = tested on: HOP-62
A498 = tested on: A498
KM12 = tested on: KM12
RXF 393 = tested on: RXF 393
SK-MEL-5 = tested on: SK-MEL-5
NCI-H226 = tested on: NCI-H226
OVCAR-3 = tested on: OVCAR-3
K562 = tested on: K562
CAKI-1 = tested on: CAKI-1
COLO 205 = tested on: COLO 205
SR = tested on: SR
SNB-19 = tested on: SNB-19
HOP-92 = tested on: HOP-92

| SMILES | GI50 (SF-295) | GI50 (U-251) | GI50 (IGROV-1) | GI50 (HOP-62) | GI50 (A498) | GI50 (KM12) | GI50 (RXF 393) | GI50 (SK-MEL-5) | GI50 (NCI-H226) | GI50 (OVCAR-3) | GI50 (K562) | GI50 (CAKI-1) | GI50 (COLO 205) | GI50 (SR) | GI50 (SNB-19) | GI50 (HOP-92) |
| --- | --- | --- | --- | --- | --- | --- | --- | --- | --- | --- | --- | --- | --- | --- | --- | --- |
| Cc1[nH]c2ccccc2c1/C=C/c1c(C)[nH]c2ccccc12 | > 100 µM (inactive) | > 100 µM (inactive) | > 100 µM (inactive) | > 100 µM (inactive) | > 100 µM (inactive) | > 100 µM (inactive) | > 100 µM (inactive) | > 100 µM (inactive) | > 100 µM (inactive) | > 100 µM (inactive) | > 100 µM (inactive) | > 100 µM (inactive) | – | – | – | – |
| CCOC(=O)Cn1c(=O)[nH]c(=O)c2[nH]cnc21 | – | > 100 µM (inactive) | > 100 µM (inactive) | > 100 µM (inactive) | > 100 µM (inactive) | > 100 µM (inactive) | > 100 µM (inactive) | > 100 µM (inactive) | – | > 100 µM (inactive) | > 100 µM (inactive) | – | > 100 µM (inactive) | > 100 µM (inactive) | > 100 µM (inactive) | – |
| COc1cc2c(c(OC)c1OC)CCNC2C1=C(O)COC1=O (configuration not stated) | > 100 µM (inactive) | > 100 µM (inactive) | > 100 µM (inactive) | > 100 µM (inactive) | > 100 µM (inactive) | > 100 µM (inactive) | > 100 µM (inactive) | 95.1 µM (inactive) | 28.9 µM (inactive) | – | > 100 µM (inactive) | > 100 µM (inactive) | > 100 µM (inactive) | > 100 µM (inactive) | > 100 µM (inactive) | > 100 µM (inactive) |
| Cc1cccc(-c2nc3c(C(=O)NCCN(C)C)cccc3[nH]2)c1 | 1.1 µM (active) | 1.49 µM (inactive) | 0.83 µM (active) | 1.72 µM (inactive) | 1.54 µM (inactive) | 0.944 µM (active) | 1.19 µM (inactive) | 1.65 µM (inactive) | 1.85 µM (inactive) | 1.89 µM (inactive) | 0.863 µM (active) | 2.23 µM (inactive) | 0.363 µM (active) | – | 1.98 µM (inactive) | 1.28 µM (inactive) |
| CS(=O)(=O)OCCCOS(C)(=O)=O | > 100 µM (inactive) | > 100 µM (inactive) | > 100 µM (inactive) | > 100 µM (inactive) | > 100 µM (inactive) | > 100 µM (inactive) | > 100 µM (inactive) | > 100 µM (inactive) | > 100 µM (inactive) | > 100 µM (inactive) | > 100 µM (inactive) | – | > 100 µM (inactive) | > 100 µM (inactive) | > 100 µM (inactive) | > 100 µM (inactive) |
| N#C/C(=C1\OC(=O)C(c2ccc(Br)cc2)=C1O)c1ccc(Br)cc1 | 17.7 µM (inactive) | 13.2 µM (inactive) | 14.2 µM (inactive) | 19.2 µM (inactive) | 15.5 µM (inactive) | 14.9 µM (inactive) | 12 µM (inactive) | – | 18.1 µM (inactive) | 14.9 µM (inactive) | 19.3 µM (inactive) | 17.3 µM (inactive) | 17.9 µM (inactive) | 17.9 µM (inactive) | 14.4 µM (inactive) | 16.1 µM (inactive) |
| COc1ccc2c(c1)OC[C@@H]1c3cc4c(cc3O[C@H]21)OCO4 | > 100 µM (inactive) | > 100 µM (inactive) | – | > 100 µM (inactive) | > 100 µM (inactive) | > 100 µM (inactive) | > 100 µM (inactive) | > 100 µM (inactive) | > 100 µM (inactive) | > 100 µM (inactive) | > 100 µM (inactive) | 58.5 µM (inactive) | > 100 µM (inactive) | – | 30.4 µM (inactive) | 70 µM (inactive) |
| O=Cc1ccc2c(c1I)OCO2 | > 100 µM (inactive) | > 100 µM (inactive) | > 100 µM (inactive) | > 100 µM (inactive) | > 100 µM (inactive) | > 100 µM (inactive) | – | > 100 µM (inactive) | > 100 µM (inactive) | > 100 µM (inactive) | > 100 µM (inactive) | > 100 µM (inactive) | > 100 µM (inactive) | > 100 µM (inactive) | > 100 µM (inactive) | – |
| O=c1[nH]c(=O)n(C2OC(CO)C(N(O)Cc3ccc(F)cc3)C2O)cc1Br (configuration not stated) | > 100 µM (inactive) | > 100 µM (inactive) | > 100 µM (inactive) | – | > 100 µM (inactive) | > 100 µM (inactive) | > 100 µM (inactive) | > 100 µM (inactive) | – | > 100 µM (inactive) | > 100 µM (inactive) | – | > 100 µM (inactive) | > 100 µM (inactive) | > 100 µM (inactive) | > 100 µM (inactive) |
| Cc1c(NC(=O)C(C)(C)Br)c(=O)oc2c(C)c3occc(=O)c3cc12 | 22.9 µM (inactive) | 72.9 µM (inactive) | 57 µM (inactive) | 29.6 µM (inactive) | 18.1 µM (inactive) | – | 55.3 µM (inactive) | 29.7 µM (inactive) | 23.3 µM (inactive) | > 100 µM (inactive) | 64.3 µM (inactive) | – | > 100 µM (inactive) | 43 µM (inactive) | 87.9 µM (inactive) | – |
| CN1NC(c2ccccc2)=C(C#N)C(=O)CC1c1ccccc1Cl (configuration not stated) | > 100 µM (inactive) | > 100 µM (inactive) | – | 25.3 µM (inactive) | – | > 100 µM (inactive) | > 100 µM (inactive) | 69.8 µM (inactive) | > 100 µM (inactive) | – | – | > 100 µM (inactive) | > 100 µM (inactive) | > 100 µM (inactive) | > 100 µM (inactive) | > 100 µM (inactive) |
| Cc1ccc2sc3cc(=O)cc(C)c-3nc2c1 | 33.1 µM (inactive) | 32.7 µM (inactive) | > 100 µM (inactive) | 65 µM (inactive) | – | 49.7 µM (inactive) | – | 16.6 µM (inactive) | > 100 µM (inactive) | 57.3 µM (inactive) | 18.6 µM (inactive) | 28.5 µM (inactive) | 61.9 µM (inactive) | 28.8 µM (inactive) | 40.8 µM (inactive) | > 100 µM (inactive) |
| c1cnc2c3[nH]cc4[nH]c5ccccc5c4c-3nc2c1 | 47.9 µM (inactive) | 75.3 µM (inactive) | > 100 µM (inactive) | 40.4 µM (inactive) | > 100 µM (inactive) | 36.1 µM (inactive) | 93.3 µM (inactive) | > 100 µM (inactive) | 48.3 µM (inactive) | 53 µM (inactive) | 36.5 µM (inactive) | 64.1 µM (inactive) | 54.7 µM (inactive) | – | > 100 µM (inactive) | 16.9 µM (inactive) |
| Nc1nc(S)nc(C(=O)Nc2nccs2)c1-c1ccccc1 | > 100 µM (inactive) | > 100 µM (inactive) | > 100 µM (inactive) | > 100 µM (inactive) | > 100 µM (inactive) | > 100 µM (inactive) | > 100 µM (inactive) | > 100 µM (inactive) | > 100 µM (inactive) | > 100 µM (inactive) | > 100 µM (inactive) | > 100 µM (inactive) | > 100 µM (inactive) | > 100 µM (inactive) | > 100 µM (inactive) | > 100 µM (inactive) |
| COC(=O)CC(=O)OC1C[C@@H]2CCC3C(C)(C)CCC[C@]3(C)C23CC[C@@]1(C)C3 (some centres not stated) | 19.2 µM (inactive) | 17.4 µM (inactive) | 16.9 µM (inactive) | 19.3 µM (inactive) | – | 18.5 µM (inactive) | 18.9 µM (inactive) | 17.6 µM (inactive) | 28.6 µM (inactive) | 16.9 µM (inactive) | > 100 µM (inactive) | 16.9 µM (inactive) | 18.6 µM (inactive) | > 100 µM (inactive) | 17.4 µM (inactive) | 18 µM (inactive) |
| c1ccc(P(=C2c3ccccc3-c3ccccc32)(c2ccccc2)c2ccccc2)cc1 | 2.94 µM (inactive) | 3.05 µM (inactive) | 6.7 µM (inactive) | 1.69 µM (inactive) | – | 2.24 µM (inactive) | 13 µM (inactive) | 2.17 µM (inactive) | – | 2.53 µM (inactive) | 2.1 µM (inactive) | 6.41 µM (inactive) | 3.42 µM (inactive) | – | 4.67 µM (inactive) | 2.75 µM (inactive) |
| COc1ccc(-c2cc(C(=O)Nc3cc(C(F)(F)F)cc(C(F)(F)F)c3)c3ccccc3n2)cc1 | 10.3 µM (inactive) | 4.28 µM (inactive) | 12.6 µM (inactive) | 12.8 µM (inactive) | 15.1 µM (inactive) | 13.2 µM (inactive) | 5.12 µM (inactive) | 18 µM (inactive) | 17.1 µM (inactive) | 4.93 µM (inactive) | 4.89 µM (inactive) | 11.3 µM (inactive) | 13.4 µM (inactive) | 4.29 µM (inactive) | – | – |
| Nc1c(-c2cn(Cc3ccccc3)c3ccccc23)[n+]([O-])c2ccccc2[n+]1[O-] | 21.9 µM (inactive) | 32.5 µM (inactive) | 21.7 µM (inactive) | – | 18.4 µM (inactive) | 28.8 µM (inactive) | – | 21.9 µM (inactive) | 6.35 µM (inactive) | 19.8 µM (inactive) | 24.5 µM (inactive) | 16 µM (inactive) | 35.3 µM (inactive) | – | 36.6 µM (inactive) | 8.79 µM (inactive) |
| Fc1cccc(C2SCc3nc4ccccc4n32)c1 (configuration not stated) | 48.3 µM (inactive) | – | 39.6 µM (inactive) | – | – | 39.1 µM (inactive) | > 10 µM (inactive) | 12.7 µM (inactive) | 41.1 µM (inactive) | 36.2 µM (inactive) | 28.5 µM (inactive) | 25.7 µM (inactive) | 71.4 µM (inactive) | 35.6 µM (inactive) | 75.5 µM (inactive) | 12.5 µM (inactive) |
| O=[N+]([O-])c1ccc(-c2noc(-c3ccc(Cl)cc3)c2C2=NCCN2)cc1 | > 100 µM (inactive) | > 100 µM (inactive) | > 100 µM (inactive) | > 100 µM (inactive) | – | > 100 µM (inactive) | > 100 µM (inactive) | > 100 µM (inactive) | > 100 µM (inactive) | > 100 µM (inactive) | > 100 µM (inactive) | > 100 µM (inactive) | > 100 µM (inactive) | > 100 µM (inactive) | > 100 µM (inactive) | – |
